In one test the target is main protease (Mpro) of SARS-CoV-2 (Severe acute respiratory syndrome coronavirus 2 (2019-nCoV) (SARS-CoV-2), UniProt P0DTD1). The experiment in a line: Enzyme IC50 of SARS-CoV-2 inhibitors. Type of test: biochemical. To be noted: Table 1, Example SARS-COV-2 inhibitors.
`Cc1cncc(-c2nnc3n2CCN(C(c2ccccc2)c2ccccc2)C3)c1` [PKJ-585] showed an IC50 of 5800 nM.

The same test, now with this note: Table 2, List of compounds.
`Cc1cncc(C(=O)N2CCC(=C3c4ccccc4C[S+]([O-])c4ccccc43)CC2)c1` (centres unmarked) [NZ- 826, (5-methyl-3-pyridyl)-[4-(5-oxo-6H-benzo[c][1]benzothiepin-11-ylidene)-1-piperidyl]methanone] came in with an IC50 of 60 to 70 nM.
Same read-out and setting: in the case of `Cc1cncc(C(=O)N2CCC(=C3c4ccccc4CS(=N)(=O)c4ccccc43)CC2)c1` (centres unmarked) [NZ- 827, [4-(5-imino-5-oxo-6H-benzo[c][1]benzothiepin-11-ylidene)-1-piperidyl]-(5-methyl-3-pyridyl)methanone] it was 57 nM.
Still for that read-out and setting: then `O=C(c1cncc2cc[nH]c12)N1CCC(=C2c3ccccc3CSc3ccccc32)CC1` [NZ- 828, [4-(6H-benzo[c][1]benzothiepin-11-ylidene)-1-piperidyl]-(1H-pyrrolo[3,2-c]pyridin-7-yl)methanone], with 21 to 33 nM; and `O=C(c1cncc2cc[nH]c12)N1CCC(=C2c3ccccc3C[S+]([O-])c3ccccc32)CC1` (centres unmarked) [NZ- 829, [4-(5-oxo-6H-benzo[c][1]benzothiepin-11-ylidene)-1-piperidyl]-(1H-pyrrolo[3,2-c]pyridin-7-yl)methanone], with 15 to 31 nM.
Compound `N=S1(=O)Cc2ccccc2C(=C2CCN(C(=O)c3cncc4cc[nH]c34)CC2)c2ccccc21` (centres unmarked) [NZ- 830, [4-(5-imino-5-oxo-6H-benzo[c][1]benzothiepin-11-ylidene)-1-piperidyl]-(1H-pyrrolo [3,2-c]pyridin-7-yl)methanone] had an IC50 of 32 to 39 nM.
On the same count and under the same terms, in the case of `Cc1cncc(C(=O)N2CCN(C3c4ccccc4CS(=O)(=O)c4ccc(F)cc43)CC2)c1` (centres unmarked) [NZ- 831, [4-(2-fluoro-5,5-dioxo-6,11-dihydrobenzo[c][1]benzothiepin-11-yl)piperazin-1-yl]-(5-methyl-3-pyridyl)methanone] it was 45 nM.
Same read-out and setting: then `O=C(c1cncc2cc[nH]c12)N1CCN(C2c3ccccc3CS(=O)(=O)c3ccc(F)cc32)CC1` (centres unmarked) [NZ- 832, [4-(2-fluoro-5,5-dioxo-6,11-dihydrobenzo[c][1]benzothiepin-11-yl)piperazin-1-yl]-(1H-pyrrolo[3,2-c]pyridin-7-yl)methanone], with 18 nM; and `Cc1cncc(C(=O)N2CCN(C3c4cc(F)ccc4CS(=O)(=O)c4ccccc43)CC2)c1` (centres unmarked) [NZ- 833, [4-(9-fluoro-5,5-dioxo-6,11-dihydrobenzo[c][1]benzothiepin-11-yl)piperazin-1-yl]-(5-methyl-3-pyridyl)methanone], with 66 to 130 nM.
`O=C(c1cncc2cc[nH]c12)N1CCN(C2c3cc(F)ccc3CS(=O)(=O)c3ccccc32)CC1` (centres unmarked) [NZ- 834, [4-(9-fluoro-5,5-dioxo-6,11-dihydrobenzo[c][1]benzothiepin-11-yl)piperazin-1-yl]-(1H-pyrrolo[3,2-c]pyridin-7-yl)methanone] registered an IC50 of 14 to 47 nM.
`Cc1cncc(C(=O)N2CCC(=C3c4ccccc4CC(=O)c4sccc43)CC2)c1` [NZ- 835, 2-[1-(5-methylpyridine-3-carbonyl)-4-piperidylidene]-6-thiatricyclo[8.4.0.03,7]tetradeca-1(10),3(7),4,11,13-pentaen-8-one] returned an IC50 of 27 to 48 nM.
On the same count and under the same terms, in the case of `O=C1Cc2ccccc2C(=C2CCN(C(=O)c3cncc4cc[nH]c34)CC2)c2ccsc21` [NZ- 836] it was 9 to 20 nM.
The same measure, in the same setting: then `O=C(c1cncc2cc[nH]c12)N1CCC(=C2c3ccccc3C3OC3c3ccccc32)CC1` (centres unmarked) [NZ- 838], with 91 nM; and `O=C1Cc2ccccc2C(=C2CCN(C(=O)c3cncc4cc[nH]c34)CC2)c2ccccc21` [NZ- 839], with 18 nM.

By IC50 is commonly meant the midpoint of a concentration-inhibition curve. A high value points to weaker potency.

Values taken from US20250074907A1, “INHIBITORS OF SARS-COV-2” (THE TEXAS A&M UNIVERSITY SYSTEM, priority 2021, published 2025).
